This note sets out measurements from patent publication US8008299B2, “Urotensin II receptor antagonists” (Janssen Pharmaceutica, N.V., priority 2007, dated 2011).

Where two headings read alike, the source gives them in different places.

The target in experiment [1] is T1, rat GPR14 (U-II receptor) (Rattus norvegicus, UniProt P49684).
T1 construct: expressed in transfected cells
T1 sequence (P49684 1-386): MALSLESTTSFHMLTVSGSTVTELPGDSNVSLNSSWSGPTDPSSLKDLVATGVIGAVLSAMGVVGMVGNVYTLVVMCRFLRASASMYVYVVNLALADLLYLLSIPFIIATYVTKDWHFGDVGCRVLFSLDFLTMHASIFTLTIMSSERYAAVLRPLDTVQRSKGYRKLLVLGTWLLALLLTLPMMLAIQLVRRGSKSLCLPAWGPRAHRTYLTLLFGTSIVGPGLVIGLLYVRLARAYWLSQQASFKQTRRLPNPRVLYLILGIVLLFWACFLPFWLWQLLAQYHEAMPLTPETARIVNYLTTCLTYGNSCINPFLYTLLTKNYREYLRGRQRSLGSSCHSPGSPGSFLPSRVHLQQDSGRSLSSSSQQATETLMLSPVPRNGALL
As to the kind of experiment: Rat UII Calcium Mobilization FLIPR Assay. Type of experiment: cell-based. As to conditions: CHO cells transfected with rat GPR14; antagonist activity after 5 min incubation vs agonist (Ac)-CFWK(2-NaI)C-NH2 at 1 nM. The text has this:
To derive these cells, the complete coding sequence of rat U-II (Genbank Accession No. U32673) was amplified by nested PCR from rat heart marathon-Ready cDNA. […] The PCR products were cloned into pcDNA3 (Invitrogen) digested with EcoR I and Xba I. Clones containing rat U-II receptor were verified by complete sequencing of the U-II receptor insert to ensure a lack of PCR-introduced errors. The constructed vector was transfected into CHO cells by using lipofectamine (GIBCO BRL). CHO cells with high expression of rat U-II receptor were selected and established as stable cell lines by using G418. CHO cells were seeded at 25,000 cells per well into 96-well, black-wall, clear-bottom microtiter plates 24 h before assay. Cells in culture media (DMEM/F12 containing 15 mM HEPES, L-glutamine, pyridoxine hydrochloride; 10% fetal bovine serum; 1 mg/mL G418 sulfate; antibiotic-antimycotic; pH 7.4) were loaded with proprietary dye, from the FLIPR Calcium Assay Kit (Molecular Devices), prepared in assay buffer (Hanks Balanced Salts Solution, 20 mM HEPES, 0.1% BSA, 2.5 mM probenecid, pH 7.4), and incubated for 1 h at 37° C. Calcium mobilization determinations were performed at room temperature (23° C.).
In general terms: Calcium flux is commonly read through the fluorescence of an indicator in the cells.

In experiment [2] the target is T2, Human UII (U-II receptor) in 6D9 human rhabdomyosarcoma cells (Homo sapiens, UniProt Q9UKP6).
T2 construct: 6D9: isolated by dilution subcloning of RMS13 cells, ATCC® Number: CRL-2061; host or cells: 6D9 human rhabdomyosarcoma cells (subclone of RMS13)
T2 sequence (Q9UKP6 1-389): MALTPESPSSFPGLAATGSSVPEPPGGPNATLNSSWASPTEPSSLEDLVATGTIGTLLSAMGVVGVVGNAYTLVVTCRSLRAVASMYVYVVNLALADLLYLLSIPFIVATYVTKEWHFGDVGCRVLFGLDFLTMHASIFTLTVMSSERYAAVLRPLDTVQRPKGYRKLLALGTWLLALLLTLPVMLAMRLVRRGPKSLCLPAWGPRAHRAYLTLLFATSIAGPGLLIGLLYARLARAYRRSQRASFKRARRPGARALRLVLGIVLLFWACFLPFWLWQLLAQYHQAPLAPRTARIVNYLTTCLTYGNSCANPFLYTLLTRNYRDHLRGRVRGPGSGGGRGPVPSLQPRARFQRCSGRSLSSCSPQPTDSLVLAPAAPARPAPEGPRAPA
As to the kind of experiment: Human UII Calcium Mobilization Assay. It is filed as cell-based. Particulars: 6D9 human rhabdomyosarcoma cells, FLIPR TETRA, average; read-out: Human UII Ca+ Mobilization Average IC50. The protocol: 25 μL of dye solution was added to the wells such that the final liquid volume before agonist/antagonist treatment was 50 μL for all assays. The cell plates were incubated at 37° C. for 45 minutes and the fluorescence intensity was measured on a Fluorometric Imaging Plate Reader (FLIPR^TETRA, Molecular Devices, Sunnyvale, Calif.).
Antagonist and agonist U-II were added at room temperature on the FLIPR^TETRA, and the fluorescence intensity before and after addition was measured over a period of 4 minutes. The dye incubation time and temperature as well as instrument setting was adjusted so the fluorescence intensity could be compared between plates on the same day. EC50 and IC50 were analyzed using GraphPad Prism 4 software (GraphPad Software Inc., San Diego, Calif.).
For assays, U-II agonist, U-II antagonist and urantide were diluted with HBSS/HEPES containing 0.01% FBS.
Test compounds were dissolved in DMSO at 10 mM concentration. The serial dilutions were carried out in HBSS/HEPES. The highest final DMSO concentration was at 0.1%.

Experiment [3] concerns the target T3, UT receptors in HSMM (Human Skeletal Muscle Myoblasts) (Homo sapiens, UniProt Q9UKP6).
T3 sequence (Q9UKP6 1-389): T2 sequence (Q9UKP6 1-389)
As to the kind of experiment: Human Radioligand Binding Assay ((^125I)-U-II binding to intact HSMM).

Where [4] appears, read: read-out: Human UII Average Binding Ki, intact HSMM, 0.150 nM (^125I)-U-II, 3 h, 25° C.

In general, IC50 refers to the midpoint of a concentration-inhibition curve. A word on the Ki: it is a measure of affinity in units of concentration, obtained from inhibition or displacement. Turning to `CCN1CCN(c2cccc3c2CN([C@H](CCCNC(=O)C2CCC2)c2ccc(OC)c(OC)c2)C3=O)CC1` [Cpd 80, cyclobutanecarboxylic acid {(4R)-4-(3,4-dimethoxy-phenyl)-4-[4-(4-ethyl-piperazin-1-yl)-1-oxo-1,3-dihydro-isoindol-2-yl]-butyl}-amide], the IC50 in experiment [1] was determined as 21 nM; in experiment [2], 311 nM. The same molecule returned an inhibition constant (Ki) in experiment [3] of 18 nM.

`COc1ccc([C@@H](CCCN(C)S(=O)(=O)c2cccs2)N2Cc3c(cccc3N3CCNCC3)C2=O)cc1OC` [Cpd 30, thiophene-2-sulfonic acid [(4R)-4-(3,4-dimethoxy-phenyl)-4-(1-oxo-4-piperazin-1-yl-1,3-dihydro-isoindol-2-yl)-butyl]-methyl-amide]: the results for the 50% inhibitory concentration (IC50) in experiment [1] and in experiment [2] were 39 nM and 409 nM, respectively. The Ki in experiment [3] (setting [4]) was 49 nM.

For the molecule `CCN1CCN(c2cccc3c2CN([C@H](CCCN(C)Cc2ccc(F)cc2)c2ccc(OC)c(OC)c2)C3=O)CC1` [Cpd 99, 2-{(1R)-1-(3,4-dimethoxy-phenyl)-4-[(4-fluoro-benzyl)-methyl-amino]-butyl}-4-(4-ethyl-piperazin-1-yl)-2,3-dihydro-isoindol-1-one], the half-maximal inhibitory concentration (IC50) in experiment [1] turned out to be 4 nM; in experiment [2], 238 nM. In addition, in experiment [3], the affinity, expressed as Ki, was 47 nM.

In the case of `COc1ccc([C@@H](CCCNc2nccc(C(F)(F)F)n2)N2Cc3c(cccc3N3CCN(Cc4ccccc4)CC3)C2=O)cc1OC` [Cpd 5, 4-(4-benzyl-piperazin-1-yl)-2-[(1R)-1-(3,4-dimethoxy-phenyl)-4-(4-trifluoromethyl-pyrimidin-2-ylamino)-butyl]-2,3-dihydro-isoindol-1-one], the IC50 in experiment [1] was found to be 16 nM; in experiment [2] it was 857 nM. The molecule also gave a Ki in experiment [3] of 45 nM.

Turning to `CCN1CCN(c2cccc3c2CN([C@H](CCCNc2nccc(OC)n2)c2ccc(OC)c(OC)c2)C3=O)CC1` [Cpd 21, 2-[(1R)-1-(3,4-dimethoxy-phenyl)-4-(4-methoxy-pyrimidin-2-ylamino)-butyl]-4-(4-ethyl-piperazin-1-yl)-2,3-dihydro-isoindol-1-one], the concentration for half-maximal inhibition (IC50) in experiment [1] amounted to 4 nM; in experiment [2] it was 620 nM. For the same molecule, in experiment [3], the Ki stood at 8 nM.

On to `CCN1CCN(c2cccc3c2CN(C(CC2CCN(Cc4ccccc4)CC2)c2ccc(OC)c(OC)c2)C3=O)CC1` (stereo not drawn) [Cpd 13, 2-[2-(1-benzyl-piperidin-4-yl)-1-(3,4-dimethoxy-phenyl)-ethyl]-4-(4-ethyl-piperazin-1-yl)-2,3-dihydro-isoindol-1-one], for which the IC50 was determined as 167 nM in experiment [1] and 1980 nM in experiment [2]. This molecule returned a Ki in experiment [3] of more than 300 nM.

In the case of `CCN1CCN(c2cccc3c2CN([C@H](CCCNS(=O)(=O)c2cccs2)c2ccc(OC)c(OC)c2)C3=O)CC1` [Cpd 84, thiophene-2-sulfonic acid {(4R)-4-(3,4-dimethoxy-phenyl)-4-[4-(4-ethyl-piperazin-1-yl)-1-oxo-1,3-dihydro-isoindol-2-yl]-butyl}-amide], the half-maximal inhibitory concentration (IC50) came to 1 nM in experiment [1] and 8 nM in experiment [2]. In addition, in experiment [3] (setting [4]), the Ki was 4 nM.

With `CCN1CCN(c2cccc3c2CN([C@H](CCCN(Cc2ccccc2)C(C)C)c2ccc(OC)c(OC)c2)C3=O)CC1` [Cpd 96, 2-[(1R)-4-(benzyl-isopropyl-amino)-1-(3,4-dimethoxy-phenyl)-butyl]-4-(4-ethyl-piperazin-1-yl)-2,3-dihydro-isoindol-1-one], the 50% inhibitory concentration (IC50) was determined as 15 nM in experiment [1] and 152 nM in experiment [2]. In experiment [3], this molecule registered a Ki of 69 nM.

Regarding `CCN1CCN(c2cccc3c2CN(C(c2cccc(NCc4ccccc4)c2)c2ccc(OC)c(OC)c2)C3=O)CC1` (stereo not drawn) [Cpd 19, 2-[(3-benzylamino-phenyl)-(3,4-dimethoxy-phenyl)-methyl]-4-(4-ethyl-piperazin-1-yl)-2,3-dihydro-isoindol-1-one], the IC50 in experiment [1] is 138 nM; in experiment [2] it was 2380 nM. In experiment [3], this molecule displayed a Ki of more than 300 nM.

For `CCN1CCN(c2cccc3c2CN([C@H](CCCNS(=O)(=O)O)c2ccc(OC)c(OC)c2)C3=O)CC1` [Cpd 71, {(4R)-4-(3,4-dimethoxy-phenyl)-4-[4-(4-ethyl-piperazin-1-yl)-1-oxo-1,3-dihydro-isoindol-2-yl]-butyl}-sulfamic acid], the IC50 was 457 nM in experiment [1] and 1790 nM in experiment [2]. In experiment [3], this molecule registered an inhibitory constant (Ki) of more than 300 nM.

In the case of `COc1ccc([C@@H](CCCNc2nccc(C(F)(F)F)n2)N2Cc3c(cccc3N3CCN(C4CC4)CC3)C2=O)cc1OC` [Cpd 4, 4-(4-cyclopropyl-piperazin-1-yl)-2-[(1R)-1-(3,4-dimethoxy-phenyl)-4-(4-trifluoromethyl-pyrimidin-2-ylamino)-butyl]-2,3-dihydro-isoindol-1-one], the IC50 in experiment [1] amounted to 1700 nM; in experiment [2], 7010 nM. For the same molecule, the Ki in experiment [3] is more than 300 nM.

In the case of `CCN1CCN(c2cccc3c2CN([C@H](CCCN(Cc2ccc(F)cc2)C2CC2)c2ccc(OC)c(OC)c2)C3=O)CC1` [Cpd 90, 2-[(1R)-4-[cyclopropyl-(4-fluoro-benzyl)-amino]-1-(3,4-dimethoxy-phenyl)-butyl]-4-(4-ethyl-piperazin-1-yl)-2,3-dihydro-isoindol-1-one], the IC50 in experiment [1] was determined as 6 nM; in experiment [2], 168 nM. In experiment [3], this molecule had a Ki of 34 nM.

With `COc1ccc([C@@H](CCCOCc2ccccc2)N2Cc3c(cccc3N3CCNCC3)C2=O)cc1OC` [Cpd 41, 2-[(1R)-4-benzyloxy-1-(3,4-dimethoxy-phenyl)-butyl]-4-piperazin-1-yl-2,3-dihydro-isoindol-1-one], the results for the half-inhibitory concentration (IC50) in experiment [1] and in experiment [2] were 22 nM and 450 nM, respectively. In experiment [3], the inhibition constant (Ki) was found to be 165 nM.

For `CCN1CCN(c2cccc3c2CN([C@H](CCCNC(=O)Nc2ccccc2)c2ccc(OC)c(OC)c2)C3=O)CC1` [Cpd 66, 1-{(4R)-4-(3,4-dimethoxy-phenyl)-4-[4-(4-ethyl-piperazin-1-yl)-1-oxo-1,3-dihydro-isoindol-2-yl]-butyl}-3-phenyl-urea], the figures for the IC50 in experiment [1] and in experiment [2] were 23 nM and 842 nM, respectively. This molecule also had an inhibition constant Ki in experiment [3] of 84 nM.

Regarding `CCN1CCN(c2cccc3c2CN([C@H](CCCNC(=O)c2nccn2C)c2ccc(OC)c(OC)c2)C3=O)CC1` [Cpd 56, 1-methyl-1H-imidazole-2-carboxylic acid {(4R)-4-(3,4-dimethoxy-phenyl)-4-[4-(4-ethyl-piperazin-1-yl)-1-oxo-1,3-dihydro-isoindol-2-yl]-butyl}-amide], the IC50 in experiment [1] was found to be 79 nM; in experiment [2], 699 nM. The Ki in experiment [3] was found to be 125 nM.

Regarding `COc1ccc([C@@H](CCCn2ccnc2)N2Cc3c(cccc3N3CCNCC3)C2=O)cc1OC` [Cpd 35, 2-[(1R)-1-(3,4-dimethoxy-phenyl)-4-imidazol-1-yl-butyl]-4-piperazin-1-yl-2,3-dihydro-isoindol-1-one], the figures for the IC50 in experiment [1] and in experiment [2] were 1900 nM and more than 10000 nM, respectively. For the same molecule, in experiment [3], the Ki was 1100 nM.
